Laboratory results published in patent US20240208962A1, “MICROBIOCIDAL QUINOLINE/QUINOXALINE BENZOTHIAZINE DERIVATIVES” (SYNGENTA CROP PROTECTION AG, priority 2021, published 2024).

Columns and labels:
Fusarium culmorum = test: microbe, parasite or virus in culture; format: cell-based; conditions: read-out: control of Fusarium culmorum (inhibition of growth, photometric)
[1] = system: Monographella nivalis (Microdochium nivale); test: Monographella nivalis (Microdochium nivale) / liquid culture (foot rot cereals); format: cell-based; conditions: liquid culture PDB, 4 to 5 days after application, read-out: control of Monographella nivalis (inhibition of growth, photometric)
[2] = system: Botryotinia fuckeliana (Botrytis cinerea); test: Botryotinia fuckeliana (Botrytis cinerea) / liquid culture (Gray mould); format: cell-based; conditions: liquid culture Vogels broth, 3-4 days after application, read-out: control of Botryotinia fuckeliana (inhibition of growth, photometric)
[3] = system: Glomerella lagenarium (Colletotrichum lagenarium); test: Glomerella lagenarium (Colletotrichum lagenarium) / liquid culture (Anthracnose); format: cell-based; conditions: Colletotrichum orbiculare, liquid culture PDB, 3-4 days after application, read-out: control of Glomerella lagenarium (inhibition of growth, photometric)
[4] = system: Mycosphaerella graminicola (Septoria tritici); test: Mycosphaerella graminicola (Septoria tritici) on wheat / preventative; format: in vivo; conditions: Zymoseptoria tritici, wheat plants cv. Riband, preventative spray, 16 to 19 days after application, read-out: control of Mycosphaerella graminicola compared to untreated control
[5] = system: Mycosphaerella graminicola (Septoria tritici); test: Comparative: Mycosphaerella graminicola (Septoria tritici) on wheat / preventative, emulsifiable concentrate; format: in vivo; conditions: rate of application 60 ppm, Mycosphaerella graminicola on wheat cv. Riband, 16 to 19 days after application
Botrytis cinerea = test: Comparative: Botrytis cinerea / tomato / preventative; format: in vivo; conditions: rate of application 200 ppm, Botrytis cinerea on tomato, emulsifiable concentrate, 5-6 days after application
Venturia inaequalis = test: Comparative: Venturia inaequalis / apple / preventative (Scab on apple); format: in vivo; conditions: rate of application 200 ppm, Venturia inaequalis on apple seedlings, emulsifiable concentrate, 11-13 days after application
[6] = system: Colletotrichum lagenarium; test: Comparative: Colletotrichum lagenarium / cucumber / preventative (Anthracnose); format: in vivo; conditions: rate of application 200 ppm, Colletotrichum lagenarium on cucumber cv. Wisconsin, emulsifiable concentrate, 6-8 days after application

SMILES | inhibition at 20 ppm (Fusarium culmorum) | inhibition at 20 ppm [1] | inhibition at 20 ppm [2] | inhibition at 20 ppm [3] | pest or weed control at 60 ppm [4] | Efficacy (% control) [5] | Efficacy (% control) (Botrytis cinerea) | Efficacy (% control) (Venturia inaequalis) | Efficacy (% control) [6] | melting point
Cc1cccc2c1S[C@](C)(C(F)F)N=C2c1cnc2c(F)cccc2c1 [E.06, (2R)-2-(difluoromethyl)-4-(8-fluoro-3-quinolyl)-2,8-dimethyl-1,3-benzothiazine] | ≥ 80% | ≥ 80% | ≥ 80% | ≥ 80% | – | – | – | – | – | –
Cc1ccc2c(c1C)SC(C)(C)N=C2c1cnc2c(F)cccc2c1 [E.11, 4-(8-fluoro-3-quinolyl)-2,2,7,8-tetramethyl-1,3-benzothiazine] | ≥ 80% | ≥ 80% | ≥ 80% | ≥ 80% | ≥ 80% | – | – | – | – | –
CC1(C)N=C(c2cnc3c(F)cccc3c2)c2ccc(Cl)c(Cl)c2S1 [E.05, 7,8-dichloro-4-(8-fluoro-3-quinolyl)-2,2-dimethyl-1,3-benzothiazine] | ≥ 80% | ≥ 80% | ≥ 80% | ≥ 80% | ≥ 80% | – | – | – | – | –
CC1(C(F)F)N=C(c2cnc3c(F)cccc3c2)c2cccc(Cl)c2S1 (stereo not shown) [E.09, 8-chloro-2-(difluoromethyl)-4-(8-fluoro-3-quinolyl)-2-methyl-1,3-benzothiazine] | ≥ 80% | ≥ 80% | ≥ 80% | ≥ 80% | – | – | – | – | – | –
CC1(C)N=C(c2cnc3c(F)cccc3n2)c2cccc(Cl)c2S1 [E.17, 8-chloro-4-(5-fluoroquinoxalin-2-yl)-2,2-dimethyl-1,3-benzothiazine] | ≥ 80% | ≥ 80% | ≥ 80% | ≥ 80% | – | – | – | – | – | –
CC1(C)N=C(c2cnc3c(F)cccc3c2)c2cccc(Cl)c2S1 [Compound E.12, 8-chloro-4-(8-fluoro-3-quinolyl)-2,2-dimethyl-1,3-benzothiazine] | ≥ 80% | ≥ 80% | ≥ 80% | ≥ 80% | ≥ 80% | 92 % control | 95 % control | 100 % control | 100 % control | 158 to 160 °C
CC1(C)N=C(c2cnc3c(F)cccc3c2)c2cccc(F)c2S1 [Comparative compound A, reference compound] | – | – | – | – | – | 11 % control | 95 % control | 100 % control | 80 % control | –
Cc1c(C#N)ccc2c1SC(C)(C)N=C2c1cnc2c(F)c(F)ccc2c1 [E.22, 4-(7,8-difluoro-3-quinolyl)-2,2,8-trimethyl-1,3-benzothiazine-7-carbonitrile] | – | – | ≥ 80% | – | – | – | – | – | – | 216 to 218 °C
Cc1c(Cl)ccc2c1SC(C)(C)N=C2c1cnc2c(F)cccc2c1 [E.25, 7-chloro-4-(8-fluoro-3-quinolyl)-2,2,8-trimethyl-1,3-benzothiazine] | ≥ 80% | – | ≥ 80% | ≥ 80% | ≥ 80% | – | – | – | – | 68 to 70 °C
Cc1cccc2c1SC(C)(C(F)F)N=C2c1cnc2c(F)cccc2c1 (stereo not shown) [E.15, 2-(difluoromethyl)-4-(8-fluoro-3-quinolyl)-2,8-dimethyl-1,3-benzothiazine] | ≥ 80% | ≥ 80% | ≥ 80% | ≥ 80% | – | – | – | – | – | –
Cc1nc2c(F)cccc2cc1C1=NC(C)(C)Sc2c(Cl)cccc21 [E.20, 8-chloro-4-(8-fluoro-2-methyl-3-quinolyl)-2,2-dimethyl-1,3-benzothiazine] | – | ≥ 80% | ≥ 80% | ≥ 80% | – | – | – | – | – | 134 to 136 °C
Cc1c(Cl)ccc2c1SC(C)(C)N=C2c1cnc2c(F)c(F)ccc2c1 [E.21, 7-chloro-4-(7,8-difluoro-3-quinolyl)-2,2,8-trimethyl-1,3-benzothiazine] | ≥ 80% | ≥ 80% | ≥ 80% | – | – | – | – | – | – | 161 to 163 °C
Cc1ccc2c(c1F)SC(C)(C)N=C2c1cnc2c(F)cccc2c1 [Compound E.08, 8-fluoro-4-(8-fluoro-3-quinolyl)-2,2,7-trimethyl-1,3-benzothiazine] | ≥ 80% | ≥ 80% | ≥ 80% | ≥ 80% | ≥ 80% | 89 % control | 97 % control | 80 % control | – | 159 to 161 °C
CC1(Cc2ccc(Cl)nc2)N=C(c2cnc3c(F)c(F)ccc3c2)c2cccc(Cl)c2S1 (stereo not shown) [E.18, 8-chloro-2-[(6-chloro-3-pyridyl)methyl]-4-(7,8-difluoro-3-quinolyl)-2-methyl-1,3-benzothiazine] | – | ≥ 80% | ≥ 80% | ≥ 80% | – | – | – | – | – | –
COc1c(Cl)ccc2c1SC(C)(C)N=C2c1cnc2c(F)cccc2c1 [E.24, 7-chloro-4-(8-fluoro-3-quinolyl)-8-methoxy-2,2-dimethyl-1,3-benzothiazine] | ≥ 80% | ≥ 80% | ≥ 80% | – | – | – | – | – | – | –
CC1(C)N=C(c2cnc3c(F)cccc3c2)c2ccc(F)c(F)c2S1 [E.03, 7,8-difluoro-4-(8-fluoro-3-quinolyl)-2,2-dimethyl-1,3-benzothiazine] | ≥ 80% | ≥ 80% | ≥ 80% | ≥ 80% | ≥ 80% | – | – | – | – | –
CC1(C)N=C(c2cnc3c(F)c(F)ccc3c2)c2cccc(Cl)c2S1 [Compound E.02, 8-chloro-4-(7,8-difluoro-3-quinolyl)-2,2-dimethyl-1,3-benzothiazine] | – | – | ≥ 80% | ≥ 80% | ≥ 80% | 99 % control | 95 % control | 97 % control | 97 % control | 134 to 136 °C
Cc1cccc2c1SC(C)(C)N=C2c1cnc2c(F)c(F)ccc2c1 [Compound E.01, 4-(7,8-difluoro-3-quinolyl)-2,2,8-trimethyl-1,3-benzothiazine] | – | – | ≥ 80% | ≥ 80% | ≥ 80% | 72 % control | 97 % control | 97 % control | 97 % control | 137 to 139 °C
Cc1ccc2c(c1F)SC(C)(C)N=C2c1cnc2c(F)c(F)ccc2c1 [E.16, 4-(7,8-difluoro-3-quinolyl)-8-fluoro-2,2,7-trimethyl-1,3-benzothiazine] | ≥ 80% | ≥ 80% | ≥ 80% | – | ≥ 80% | – | – | – | – | –
Cc1cccc2c1SC(C)(C)N=C2c1cnc2c(F)cccc2c1 [Compound E.14, 4-(8-fluoro-3-quinolyl)-2,2,8-trimethyl-1,3-benzothiazine] | ≥ 80% | ≥ 80% | ≥ 80% | ≥ 80% | ≥ 80% | 83 % control | 93 % control | 100 % control | 97 % control | –
CSc1cccc2c1SC(C)(C)N=C2c1cnc2c(F)cccc2c1 [E.04, 4-(8-fluoro-3-quinolyl)-2,2-dimethyl-8-methylsulfanyl-1,3-benzothiazine] | ≥ 80% | ≥ 80% | ≥ 80% | ≥ 80% | – | – | – | – | – | –
CC1(Cc2ccc(Cl)nc2)N=C(c2cnc3c(F)cccc3c2)c2cccc(Cl)c2S1 (stereo not shown) [E.19, 8-chloro-2-[(6-chloro-3-pyridyl)methyl]-4-(8-fluoro-3-quinolyl)-2-methyl-1,3-benzothiazine] | ≥ 80% | ≥ 80% | ≥ 80% | ≥ 80% | – | – | – | – | – | –
Cc1ccc2c(c1C#N)SC(C)(C)N=C2c1cnc2c(F)cccc2c1 [E.10, 4-(8-fluoro-3-quinolyl)-2,2,7-trimethyl-1,3-benzothiazine-8-carbonitrile] | ≥ 80% | – | ≥ 80% | – | – | – | – | – | – | –
Cc1ccc2c(c1Cl)SC(C)(C)N=C2c1cnc2c(F)cccc2c1 [Compound E.13, 8-chloro-4-(8-fluoro-3-quinolyl)-2,2,7-trimethyl-1,3-benzothiazine] | ≥ 80% | ≥ 80% | ≥ 80% | ≥ 80% | ≥ 80% | 96 % control | – | – | – | –
Cc1c(C#N)ccc2c1SC(C)(C)N=C2c1cnc2c(F)cccc2c1 [E.23, 4-(8-fluoro-3-quinolyl)-2,2,8-trimethyl-1,3-benzothiazine-7-carbonitrile] | ≥ 80% | ≥ 80% | ≥ 80% | – | – | – | – | – | – | 88 to 90 °C
